Results on 14 molecules are retold here after BindingDB's records for doi:10.3109/14756360903049059 (China Pharmaceutical University, 2010).

This assay addresses T1, 3-oxoacyl-[acyl-carrier-protein] synthase 3 (Mycobacterium tuberculosis (strain ATCC 25618 / H37Rv), UniProt P9WNG3).
T1 sequence (P9WNG3 whole entry): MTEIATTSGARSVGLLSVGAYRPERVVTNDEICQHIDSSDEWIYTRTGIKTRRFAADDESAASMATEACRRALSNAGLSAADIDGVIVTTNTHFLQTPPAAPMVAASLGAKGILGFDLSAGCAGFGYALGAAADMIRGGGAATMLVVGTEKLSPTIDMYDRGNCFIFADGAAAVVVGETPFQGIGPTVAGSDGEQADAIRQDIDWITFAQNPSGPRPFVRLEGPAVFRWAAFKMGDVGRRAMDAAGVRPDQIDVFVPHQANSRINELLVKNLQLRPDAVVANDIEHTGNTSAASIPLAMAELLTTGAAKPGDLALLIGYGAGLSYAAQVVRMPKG
The experiment in a line: 3D-QSAR. On the procedure: The biological activities of the compounds were evaluated in the same laboratory. Biological activities measured as IC50 were converted to pIC50 (−log(IC50)) for use in the 3D-QSAR study.

Molecules are shown by their SMILES.

Regarding `CC1=C(O)C(C)(Cc2cccc(C(=O)c3ccccc3)c2)SC1=O` (centres undefined) [mtFabH inhibitor, 40], the IC50 amounted to 283 µM.

In turn, `CC(=O)c1ccc(C#CC2(C)SC(=O)C(C)=C2O)cc1O` (centres undefined) [mtFabH inhibitor, 4] displayed an IC50 of 7 µM.

With `CCCCCCCCCCCCCC1(C)SC(=O)C(C)=C1O` (centres undefined) [mtFabH inhibitor, 26], 80 µM corresponded to half-maximal inhibition (IC50).

With `CC(=O)Nc1cccc(-c2ccc(CC3(C)SC(=O)C(C)=C3O)cc2)c1` (centres undefined) [mtFabH inhibitor, 25], the IC50 came out at 119 µM.

`C#CC1(C)SC(=O)C(C)=C1O` (centres undefined) [mtFabH inhibitor, 2] returned an IC50 of 100 µM.

With `COC(=O)c1ccc(CC#CC2(C)SC(=O)C(C)=C2O)cc1` (centres undefined) [mtFabH inhibitor, 5], the IC50 amounted to 74 µM.

In turn, `CC(=O)c1ccc(C#CC2(C)SC(=O)C(C)=C2O)cc1` (centres undefined) [mtFabH inhibitor, 3] yielded an IC50 of 4 µM.

As for `COc1ccc(CC2(C)SC(=O)C(C)=C2O)cc1` (centres undefined) [mtFabH inhibitor, 12], the IC50 amounted to 155 µM.

`CC1=C(O)C(C)(Cc2ccc(C(F)(F)F)cc2)SC1=O` (centres undefined) [mtFabH inhibitor, 27] registered an IC50 of 100 µM.

`CC1=C(O)C(C)(C#CCc2ccc([N+](=O)[O-])cc2)SC1=O` (centres undefined) [mtFabH inhibitor, 6]: the IC50 amounted to 34 µM.

Molecule `CC1=C(O)C(C)(C#CCc2ccc(C#N)cc2)SC1=O` (centres undefined) [mtFabH inhibitor, 7] came in with an IC50 of 7 µM.

Consider `CC1=C(O)C(C)(Cc2ccccc2)SC1=O` (centres undefined) [mtFabH inhibitor, 9], for which 250 µM corresponded to half-maximal inhibition (IC50).

The molecule `CC1=C(O)C(C)(C#Cc2ccccc2C#N)SC1=O` (centres undefined) [mtFabH inhibitor, 8] gave an IC50 of 48 µM.

`COc1ccc(C2(C)SC(=O)C(C)=C2O)cc1` (centres undefined) [mtFabH inhibitor, 13] had an IC50 of 500 µM.

In general, IC50 refers to the concentration that inhibits the measured activity by half.
